Test results reported in patent publication US20060040894A1, “Compositions and methods using hyaluronic acid” (Angiotech International AG, priority 2004, published 2006).

Tested on: hyaluronidase
Assay: Hyaluronic Acid Viscometry Assay (degradation of HA by hyaluronidase)
Type: biochemical
Description: The time for the sample to run through the viscometer was proportional to the viscosity of HA in the sample, which, in turn, was proportional to the molecular weight of the HA. As the enzyme (hyaluronidase) breaks down HA, the molecular weight of the polymer is reduced, the viscosity of the solution drops, and the solution runs through the viscometer more rapidly. Accordingly, shorter run times indicated lower molecular weights of HA (i.e., more breakdown of the HA by hyaluronidase), whereas longer times indicated higher molecular weights of HA (i.e., less breakdown of the HA by hyaluronidase).
0.07% HA solutions were prepared as follows: […] and […] pH 5.5 phosphate buffer (1 M) were combined in a scintillation vial. […] The solutions were allowed to dissolve overnight at 37° C. The pH's were checked and adjusted to 6.0. The viscosity of the solutions was analyzed by measuring the run time through an Ubbelohde PC1 viscometer. 50 μl of hyaluronidase (4.2 mg in 620 ul of water) was added per vial (final concentration approximately 6 units/ml) and incubated overnight with shaking. A viscometer reading was recorded for each solution after overnight incubation.

[1] = 10 mg/ml, without enzyme (Example 4)

Time (minutes) for sample to run through viscometer (0 mg/ml (so in the source), with enzyme (Example 4)) | Degradation of HA (% viscosity relative to control t = 0) (10 mg/ml, with hyaluronidase (Example 2)) | Time (minutes) for sample to run through viscometer [1] | Effect on hyaluronidase (viscosity of HA solution versus enzyme control) (Example 2, concentrations of Table 2) | Effect on hyaluronidase (viscosity of HA solution versus enzyme control) (Example 4, 10 mg/ml) | Time (minutes) for sample to run through viscometer (10 mg/ml, with enzyme (Example 4)) | Compound
5 min | 65% | 5.85 min | inhibit the action of hyaluronidase | inhibit the action of hyaluronidase |  | CC(O)CO (centres unmarked) [Propylene glycol]
 |  | 5.5 min |  | inhibit the action of hyaluronidase | 4.36 min | SPAN 80
